Laboratory results: patent US20100311714A1, “1H-IMIDAZO[4,5-c]QUINOLINONE COMPOUNDS” (priority 2009, published 2010)
≈ marks a conversion by molar mass, not a printed value. Where two headings read alike, the source gives them in different places.

Experiments:
[1] = High-throughput equilibrium solubility at pH 6.8; type: physicochemical; settings: pH 6.8, aqueous buffer, thermodynamic from solid; read-out: HT-Eq Sol/pH 6.8
Procedure, shortened: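 Solubility was measured at pH 6.8 following the cited Zhou et al. (2007) procedure.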

PI3K delta = biological target: T1, PI3K delta (Homo sapiens, UniProt O00329); assay: PI3K delta kinase assay (Kinase-Glo luminescence); type: biochemical
T1 construct: for the full-length p110-d subunit are generated and fused by overlapping PCR; His tag (C); made in house; host or cells: baculovirus BV1060; Tn5 (Trichoplusia ni) or TiniPro insect cells
Procedure, shortened: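 Kinase-Glo ATP-depletion luminescence using 10 nM p85(iSH2)-linker-p110δ full-length His-tag construct from insect cells, with 1 μM ATP and 10 μg/mL phosphatidylinositol in 10 mM Tris pH 7.5, 3 mM MgCl2, 50 mM NaCl, 0.05% CHAPS, 1 mM DTT. 60 min room temperature; IC50 from 4-parameter logistic fit over 8 concentrations.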

T1 sequence (O00329 with tags, fused parts or gaps limits assumed): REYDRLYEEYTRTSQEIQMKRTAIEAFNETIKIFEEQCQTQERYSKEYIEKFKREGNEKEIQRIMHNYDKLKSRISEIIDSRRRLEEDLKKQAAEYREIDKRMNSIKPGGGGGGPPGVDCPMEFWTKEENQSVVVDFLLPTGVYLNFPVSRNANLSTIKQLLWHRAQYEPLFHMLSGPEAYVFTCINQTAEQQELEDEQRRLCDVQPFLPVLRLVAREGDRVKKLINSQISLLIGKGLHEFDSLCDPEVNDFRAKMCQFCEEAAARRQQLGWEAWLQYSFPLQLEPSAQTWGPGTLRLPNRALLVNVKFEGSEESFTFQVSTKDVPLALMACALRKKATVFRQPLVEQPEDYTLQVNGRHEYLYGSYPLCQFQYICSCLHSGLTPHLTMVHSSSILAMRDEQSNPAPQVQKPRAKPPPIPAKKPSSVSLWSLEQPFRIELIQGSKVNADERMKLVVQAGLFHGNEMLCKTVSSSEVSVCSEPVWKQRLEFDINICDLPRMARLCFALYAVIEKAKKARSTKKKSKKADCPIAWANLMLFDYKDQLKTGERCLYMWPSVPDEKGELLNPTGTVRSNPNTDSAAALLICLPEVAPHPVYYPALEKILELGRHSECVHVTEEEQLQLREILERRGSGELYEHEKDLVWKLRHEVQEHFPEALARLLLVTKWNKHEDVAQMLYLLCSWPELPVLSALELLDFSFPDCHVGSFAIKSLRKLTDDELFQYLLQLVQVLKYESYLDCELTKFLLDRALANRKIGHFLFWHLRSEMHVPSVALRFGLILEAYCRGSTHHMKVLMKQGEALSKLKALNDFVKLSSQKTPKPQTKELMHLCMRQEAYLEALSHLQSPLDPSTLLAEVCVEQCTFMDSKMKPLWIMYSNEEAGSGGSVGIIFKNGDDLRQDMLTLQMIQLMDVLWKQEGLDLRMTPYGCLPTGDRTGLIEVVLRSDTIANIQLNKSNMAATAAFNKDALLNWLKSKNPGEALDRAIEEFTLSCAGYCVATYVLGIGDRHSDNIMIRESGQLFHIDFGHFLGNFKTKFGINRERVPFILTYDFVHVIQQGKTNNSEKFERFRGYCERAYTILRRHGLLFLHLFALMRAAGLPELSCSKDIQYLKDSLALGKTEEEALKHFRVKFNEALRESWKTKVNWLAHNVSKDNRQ

Row | Structure (SMILES) | solubility thermodynamic [1] | IC50 (PI3K delta; read-out: EPK_PI3Kdelta/IC50) | IC50 (PI3K delta; read-out: PI3Kdelta/IC50)
1 | CNc1ncc(-c2ccc3ncc4c(c3c2)n(-c2ccc(OCCOC)nc2C)c(=O)n4C)cn1 [Example 13.5, 1-[6-(2-Methoxy-ethoxy)-2-methyl-pyridin-3-yl]-3-methyl-8-(2-methylamino-pyrimidin-5-yl)-1,3-dihydro-imidazo[4,5-c]quinolin-2-one] | 15 µg/mL (≈ 31.8 µM) | 60 nM | –
2 | CCNc1cc(-c2ccc3ncc4c(c3c2)n(-c2ccc(N(C)CCOC)nc2C)c(=O)n4C)cnc1C [Example 15.6, 8-(5-Ethylamino-6-methyl-pyridin-3-yl)-1-{6-[(2-methoxy-ethyl)-methyl-amino]-2-methyl-pyridin-3-yl}-3-methyl-1,3-dihydro-imidazo[4,5-c]quinolin-2-one] | 140 µg/mL (≈ 274 µM) | 9 nM | –
3 | Cc1ccc(-n2c(=O)n(C)c3cnc4ccc(-c5cncc(NC(C)C)c5)cc4c32)c(C)n1 [Example 14.8, 1-(2,6-Dimethyl-pyridin-3-yl)-8-(5-isopropylamino-pyridin-3-yl)-3-methyl-1,3-dihydro-imidazo[4,5-c]quinolin-2-one] | 12 µg/mL (≈ 27.4 µM) | 46 nM | –
4 | Cc1nc(N(C)C)ccc1-n1c(=O)n(C)c2cnc3ccc(-c4cncc(N)c4)cc3c21 [Example 19.5, 8-(5-Amino-pyridin-3-yl)-1-(6-dimethylamino-2-methyl-pyridin-3-yl)-3-methyl-1,3-dihydro-imidazo[4,5-c]quinolin-2-one] | 10 µg/mL (≈ 23.5 µM) | 67 nM | –
5 | COCc1ncc(-c2ccc3ncc4c(c3c2)n(-c2ccc(OC)nc2OC)c(=O)n4C)cc1OC [Example 8.12, 1-(2,6-Dimethoxy-pyridin-3-yl)-8-(5-methoxy-6-methoxymethyl-pyridin-3-yl)-3-methyl-1,3-dihydro-imidazo[4,5-c]quinolin-2-one] | 13 µg/mL (≈ 26.7 µM) | 42 nM | –
6 | Cc1nc(F)ccc1-n1c(=O)n(C)c2cnc3ccc(-c4cncc(N)c4)cc3c21 [Example 7.16, 8-(5-Amino-pyridin-3-yl)-1-(6-fluoro-2-methyl-pyridin-3-yl)-3-methyl-1,3-dihydro-imidazo[4,5-c]quinolin-2-one] | 187 µg/mL (≈ 467 µM) | 56.5 nM | –
7 | Cc1nc(C(C)(C)O)ccc1-n1c(=O)n(C)c2cnc3ccc(-c4cncc(OC(C)C)c4)cc3c21 [Example 31.9, 1-[6-(1-Hydroxy-1-methyl-ethyl)-2-methyl-pyridin-3-yl]-8-(5-isopropoxy-pyridin-3-yl)-3-methyl-1,3-dihydro-imidazo[4,5-c]quinolin-2-one] | – | 14 nM | –
8 | CNc1ncc(-c2ccc3ncc4c(c3c2)n(-c2ccc(NC(=O)COC)nc2C)c(=O)n4C)cn1 [Example 20.3, 2-Methoxy-N-{6-methyl-5-[3-methyl-8-(2-methylamino-pyrimidin-5-yl)-2-oxo-2,3-dihydro-imidazo[4,5-c]quinolin-1-yl]-pyridin-2-yl}-acetamide] | – | 403 nM | –
9 | CCN(C)c1ccc(-n2c(=O)n(C)c3cnc4ccc(-c5ccc(NC)nc5)cc4c32)c(C)n1 [Example 12.1, 1-[6-(Ethyl-methyl-amino)-2-methyl-pyridin-3-yl]-3-methyl-8-(6-methylamino-pyridin-3-yl)-1,3-dihydro-imidazo[4,5-c]quinolin-2-one] | – | 15 nM | –
10 | Cc1ncccc1-n1c(=O)n(C)c2cnc3ccc(-c4cnc5c(ccn5C)c4)cc3c21 [Example 2.14, 3-Methyl-1-(2-methyl-pyridin-3-yl)-8-(1-methyl-1H-pyrrolo[2,3-b]pyridin-5-yl)-1,3-dihydro-imidazo[4,5-c]quinolin-2-one] | – | – | 57 nM
11 | Cc1ccc(-n2c(=O)n(C)c3cnc4ccc(-c5cnc6c(ccn6C)c5)cc4c32)c(C)n1 [Example 14.7, 1-(2,6-Dimethyl-pyridin-3-yl)-3-methyl-8-(1-methyl-1H-pyrrolo[2,3-b]pyridin-5-yl)-1,3-dihydro-imidazo[4,5-c]quinolin-2-one] | – | 28 nM | –
